This note sets out measurements from patent publication US10138254B2, “Bicyclic compounds as pest control agents” (BAYER CROPSCIENCE AKTIENGESELLSCHAFT, priority 2014, dated 2018).

Read-outs that look alike come from different tables or passages of the source.

A short description of series [1]: log P by HPLC on reversed-phase (C18) columns, OECD Guideline 117. It is filed as physicochemical. The conditions noted are these: reversed-phase (C18) HPLC column. As for the experimental part:
The log P values were determined in accordance with OECD Guideline 117 (EC Directive 92/69/EEC) by HPLC (high-performance liquid chromatography) using reversed-phase (RP) columns (C18), by the following methods: [a] The LC-MS determination in the acidic range is carried out at pH 2.7 with 0.1% aqueous formic acid and acetonitrile (contains 0.1% formic acid) as eluents; linear gradient from 10% acetonitrile to 95% acetonitrile. [b] LC-MS determination in the neutral range is effected at pH 7.8 with 0.001 molar aqueous ammonium hydrogencarbonate solution and acetonitrile as eluents; linear gradient from 10% acetonitrile to 95% acetonitrile. Calibration is carried out using unbranched alkan-2-ones (having 3 to 16 carbon atoms) with known log P values (log P values determined on the basis of the retention times by linear interpolation between two successive alkanones).

In series [2] the test system is green peach aphid (Myzus persicae). Kind of series: Myzus persicae spray test (bell pepper plants). It is filed as in vivo. The conditions noted are these: application rate 4 ppm, after 6 days, 100% = all aphids killed. The procedure:
Myzus persicae—Spray Test Solvent: 7 parts by weight of dimethylformamide Emulsifier: alkylaryl polyglycol ether To produce a suitable active ingredient formulation, 1 part by weight of active ingredient is dissolved with the specified parts by weight of solvent and made up with water containing an emulsifier concentration of 1000 ppm until the desired concentration is attained. To produce further test concentrations, the formulation is diluted with emulsifier-containing water. If the addition of ammonium salts or/and penetrants is required, these are each added in a concentration of 1000 ppm to the formulation solution. Bell pepper plants (Capsicum annuum) severely infested with the green peach aphid (Myzus persicae) are treated by spraying with the active ingredient formulation in the desired concentration. After 6 days, the kill in % is determined. 100% means that all of the aphids have been killed; 0% means that none of the aphids have been killed.

In series [3] the test system is greenhouse red spider mite (Tetranychus urticae). Kind of series: Tetranychus urticae spray test, OP-resistant (bean leaf discs). It counts as in vivo. To be noted: application rate 500 g/ha, after 6 days, 100% = all spider mites killed. As for the experimental part: Tetranychus urticae—Spray Test, OP-Resistant
(§1) Solvent: 78.0 parts by weight of acetone • • 1.5 parts by weight of dimethylformamide
(§2) Emulsifier: alkylaryl polyglycol ether
(§3) To produce a suitable active ingredient formulation, 1 part by weight of active ingredient is dissolved with the specified parts by weight of solvent and made up with water containing an emulsifier concentration of 1000 ppm until the desired concentration is attained. To produce further test concentrations, the formulation is diluted with emulsifier-containing water.
Discs of bean leaves (Phaseolus vulgaris) infested with all stages of the greenhouse red spider mite (Tetranychus urticae) are sprayed with an active ingredient formulation of the desired concentration.
After 6 days, the efficacy in % is determined. 100% means that all the spider mites have been killed; 0% means that no spider mites have been killed.

For series [4], the system named is green peach aphid (Myzus persicae). Put plainly: Myzus persicae spray test (Chinese cabbage leaf discs). It counts as in vivo. The conditions noted are these: Myzus persicae, foliar, 144 h, application rate 500 g/ha, after 6 days, 100% = all aphids killed, read-out: efficacy. The procedure: Myzus persicae—Spray Test Solvent: 78 parts by weight of acetone • • 1.5 parts by weight of dimethylformamide Emulsifier: alkylaryl polyglycol ether To produce a suitable active ingredient formulation, 1 part by weight of active ingredient is dissolved with the specified parts by weight of solvent and made up with water containing an emulsifier concentration of 1000 ppm until the desired concentration is attained. To produce further test concentrations, the formulation is diluted with emulsifier-containing water. Discs of Chinese cabbage leaves (Brassica pekinensis) infested by all stages of the green peach aphid (Myzus persicae) are sprayed with an active ingredient formulation of the desired concentration. After 6 days, the efficacy in % is determined. 100% means that all the aphids have been killed; 0% means that no aphids have been killed.

Series [5] relates to larvae of the mustard beetle (Phaedon cochleariae). Put plainly: Phaedon cochleariae spray test (Chinese cabbage leaf discs). It counts as in vivo. To be noted: application rate 500 g/ha, after 7 days, 100% = all beetle larvae killed. As for the experimental part:
Phaedon cochleariae—Spray Test
as §1, §2, §3
After 7 days, the efficacy in % is determined. 100% means that all the beetle larvae have been killed; 0% means that no beetle larvae have been killed.

[6] abbreviates: acidic range, pH 2.7, 0.1% aqueous formic acid and acetonitrile, read-out: LogP[a].
Where [7] appears, read: neutral range, pH 7.8, 0.001 molar aqueous ammonium hydrogencarbonate and acetonitrile, read-out: logP[b].

In the case of `Cc1cc(C)c([S+]([O-])CC(F)(F)F)cc1-c1cnc2nc(-c3ccc[n+]([O-])c3)sc2c1` (centres unmarked) [Example 21], the chromatographic logP stood at 1.91 in series [1] (setting [6]) and 1.86 in series [1] (setting [7]). Further, in series [2], the “efficacy (kill)” value was determined as 100%.
As to `Cc1cc(F)c(-c2cnc3nc(-c4cccnc4)sc3c2)cc1SCC(F)(F)F` [Example 22, 6-{2-Fluoro-4-methyl-5-[(2,2,2-trifluoroethyl)sulphanyl]phenyl}-2-(pyridin-3-yl)[1,3]thiazolo[4,5-b]pyridine], the chromatographic logP is 3.83 in series [1] (setting [6]) and 3.78 in series [1] (setting [7]). This compound also gave an efficacy in series [3] of 90%. The pest or weed control at 500 g/ha in series [4] was 100%.
For the compound `Cn1c(=O)cnn(-c2cnc3nc(-c4cccnc4)sc3c2)c1=O` [Example 39, 4-Methyl-2-[2-(pyridin-3-yl)[1,3]thiazolo[4,5-b]pyridin-6-yl]-1,2,4-triazine-3,5(2H,4H)-dione], the chromatographic logP turned out to be 1.29 in series [1] (setting [6]) and 1.36 in series [1] (setting [7]). Further, the pest or weed control at 500 g/ha in series [4] stood at 90%. Besides, the efficacy in series [5] came out at 83%.
